These results are taken from US9708334B2, “Substituted 2,4,5,6-tetrahydropyrrolo[3,4-c]pyrazole and 4,5,6,7-tetrahydro-2H-pyrazolo[4,3-c]pyridine compounds as GlyT1 inhibitors” (DART NEUROSCIENCE (CAYMAN) LTD., priority 2014, dated 2017).

The target of this assay is T1, GlyT1 (Homo sapiens, UniProt P48067).
T1 construct: expressed in transfected cells
T1 sequence (P48067 1-706): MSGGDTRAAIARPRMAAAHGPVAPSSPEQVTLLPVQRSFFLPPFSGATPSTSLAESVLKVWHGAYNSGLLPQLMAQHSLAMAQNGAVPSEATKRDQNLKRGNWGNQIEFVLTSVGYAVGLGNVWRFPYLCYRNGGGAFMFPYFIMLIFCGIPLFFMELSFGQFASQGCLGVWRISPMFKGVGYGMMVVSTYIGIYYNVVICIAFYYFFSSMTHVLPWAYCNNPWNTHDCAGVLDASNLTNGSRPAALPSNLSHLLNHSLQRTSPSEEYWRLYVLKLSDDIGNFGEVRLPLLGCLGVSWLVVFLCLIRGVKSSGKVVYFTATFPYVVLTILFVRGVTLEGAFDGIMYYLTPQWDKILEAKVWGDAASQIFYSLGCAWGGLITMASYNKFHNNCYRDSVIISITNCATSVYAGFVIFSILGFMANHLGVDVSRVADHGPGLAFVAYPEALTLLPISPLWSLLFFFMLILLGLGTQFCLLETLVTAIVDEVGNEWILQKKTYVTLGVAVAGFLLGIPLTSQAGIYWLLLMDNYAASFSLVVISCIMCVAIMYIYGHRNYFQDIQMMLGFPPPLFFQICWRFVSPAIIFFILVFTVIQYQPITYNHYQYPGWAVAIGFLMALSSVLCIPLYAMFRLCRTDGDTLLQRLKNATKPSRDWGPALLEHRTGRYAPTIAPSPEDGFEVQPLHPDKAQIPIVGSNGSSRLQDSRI
Put plainly: Glycine Transporter 1 (GlyT1) uptake assay, scintillation proximity assay of [14C]-glycine uptake. Type of assay: cell-based. The following applies: SPA, four parameter logistic fit, read-out: GlyT1 (pIC50) (converted). In a few lines:
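[14C]-glycine uptake read by scintillation proximity on a plate counter. IC50 from four-parameter logistic fit of dose-response data.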
(Scintillation proximity formats need no separation of bound from free tracer.)
On to `CC(C)Cn1cc2c(n1)CN(C(=O)c1cc(S(C)(=O)=O)ccc1-c1cccc(F)c1)C2` [Example 427, 5-[2-(3-Fluorophenyl)-5-methanesulfonylbenzoyl]-2-(2-methylpropyl)-2H 4H 5H 6H-pyrrolo[3,4-c]pyrazole], for which the IC50 was under 100 nM. With `CCS(=O)(=O)c1ccc(N2CCC(F)(F)CC2)c(C(=O)N2Cc3cn(CC4CCC4)nc3C2)c1` [Example 428, 1-{2-[2-(Cyclobutylmethyl)-2H 4H 5H 6H-pyrrolo[3,4-c]pyrazole-5-carbonyl]-4-(ethanesulfonyl)phenyl}-4 4-difluoropiperidine], the IC50 is under 100 nM. For the compound `CS(=O)(=O)c1ccc(N2CCC(F)(F)CC2)c(C(=O)N2Cc3cn(C4CCCC4)nc3C2)c1` [Example 430, 1-(2-{2-Cyclopentyl-2H 4H 5H 6H-pyrrolo[3,4-c]pyrazole-5-carbonyl}-4-methanesulfonylphenyl)-4 4-difluoropiperidine], the IC50 is under 100 nM. The value for `CS(=O)(=O)c1ccc(N2CCC(F)(F)CC2)c(C(=O)N2Cc3cn(CC4CCC4)nc3C2)c1` [Example 431, 1-{2-[2-(Cyclobutylmethyl)-2H 4H 5H 6H-pyrrolo[3,4-c]pyrazole-5-carbonyl]-4-methanesulfonylphenyl}-4 4-difluoropiperidine] was under 100 nM; that for `CC(C)Cn1cc2c(n1)CN(C(=O)c1cc(S(C)(=O)=O)ccc1N1CCC(F)(F)CC1)C2` [Example 432, 4 4-Difluoro-1-{4-methanesulfonyl-2-[2-(2-methylpropyl)-2H 4H 5H 6H-pyrrolo[3,4-c]pyrazole-5-carbonyl]phenyl}piperidine] was under 100 nM.

For the compound `CC(C)n1cc2c(n1)CN(C(=O)c1cc(S(C)(=O)=O)ccc1N1CCC(F)(F)CC1)C2` [Example 433, 4 4-Difluoro-1-{4-methanesulfonyl-2-[2-(propan-2-yl)-2H 4H 5H 6H-pyrrolo[3,4-c]pyrazole-5-carbonyl]phenyl}piperidine], the IC50 is 100 to 1000 nM. The value for `CC(C)(F)Cn1cc2c(n1)CN(C(=O)c1cc(S(C)(=O)=O)ccc1-c1cccc(F)c1)C2` [Example 434, 2-(2-Fluoro-2-methylpropyl)-5-[2-(3-fluorophenyl)-5-methanesulfonylbenzoyl]-2H 4H 5H 6H-pyrrolo[3,4-c]pyrazole] was 100 to 1000 nM.

In the case of `CC1(COc2ccc(S(C)(=O)=O)cc2C(=O)N2Cc3cn(-c4ccccc4)nc3C2)COC1` [Example 435, 5-{5-Methanesulfonyl-2-[(3-methyloxetan-3-yl)methoxy]benzoyl}-2-phenyl-2H 4H 5H 6H-pyrrolo[3,4-c]pyrazole], the IC50 is under 100 nM. The value for `CC1(COc2ccc(S(C)(=O)=O)cc2C(=O)N2Cc3cn(-c4ccccc4F)nc3C2)COC1` [Example 436, 2-(2-Fluorophenyl)-5-{5-methanesulfonyl-2-[(3-methyloxetan-3-yl)methoxy]benzoyl}-2H 4H 5H 6H-pyrrolo[3,4-c]pyrazole] was 100 to 1000 nM; that for `Cc1cccc(-n2cc3c(n2)CN(C(=O)c2cc(S(C)(=O)=O)ccc2OCC2(C)COC2)C3)c1` [Example 437, 5-{5-Methanesulfonyl-2-[(3-methyloxetan-3-yl)methoxy]benzoyl}-2-(3-methylphenyl)-2H 4H 5H 6H-pyrrolo[3,4-c]pyrazole] was under 100 nM. The value for `CC1(COc2ccc(S(C)(=O)=O)cc2C(=O)N2Cc3cn(-c4cccc(C(F)(F)F)c4F)nc3C2)COC1` [Example 438, 2-[2-Fluoro-3-(trifluoromethyl)phenyl]-5-{5-methanesulfonyl-2-[(3-methyloxetan-3-yl)methoxy]benzoyl}-2H 4H 5H 6H-pyrrolo[3,4-c]pyrazole] was 100 to 1000 nM; that for `CC1(COc2ccc(S(C)(=O)=O)cc2C(=O)N2Cc3cn(-c4cc(Cl)ccc4F)nc3C2)COC1` [Example 439, 2-(5-Chloro-2-fluorophenyl)-5-{5-methanesulfonyl-2-[(3-methyloxetan-3-yl)methoxy]benzoyl}-2H 4H 5H 6H-pyrrolo[3,4-c]pyrazole] was 100 to 1000 nM. On to `CC1(COc2ccc(S(C)(=O)=O)cc2C(=O)N2Cc3cn(-c4ccc(F)cc4)nc3C2)COC1` [Example 440, 2-(4-Fluorophenyl)-5-{5-methanesulfonyl-2-[(3-methyloxetan-3-yl)methoxy]benzoyl}-2H 4H 5H 6H-pyrrolo[3,4-c]pyrazole], for which the IC50 is under 100 nM. `Cc1cccc(-n2cc3c(n2)CN(C(=O)c2cc(S(C)(=O)=O)ccc2OCC2(C)COC2)C3)c1F` [Example 441, 2-(2-Fluoro-3-methylphenyl)-5-{5-methanesulfonyl-2-[(3-methyloxetan-3-yl)methoxy]benzoyl}-2H 4H 5H 6H-pyrrolo[3,4-c]pyrazole]: the IC50 was 100 to 1000 nM. The value for `Cc1ccc(F)c(-n2cc3c(n2)CN(C(=O)c2cc(S(C)(=O)=O)ccc2OCC2(C)COC2)C3)c1` [Example 442, 2-(2-Fluoro-5-methylphenyl)-5-{5-methanesulfonyl-2-[(3-methyloxetan-3-yl)methoxy]benzoyl}-2H 4H 5H 6H-pyrrolo[3,4-c]pyrazole] was 100 to 1000 nM. Next, `C[C@H](Oc1ccc(C#N)cc1C(=O)N1Cc2cn(-c3ccncc3)nc2C1)C(F)(F)F` [Example 443, 3-[2-(Pyridin-4-yl)-2H 4H 5H 6H-pyrrolo[3,4-c]pyrazole-5-carbonyl]-4-{[(2S)-1 1 1-trifluoropropan-2-yl]oxy}benzonitrile]: under 100 nM; `CC(C)Oc1ccc(C#N)cc1C(=O)N1Cc2cnn(CC(F)(F)F)c2C1` [Example 444, 4-(Propan-2-yloxy)-3-[1-(2 2 2-trifluoroethyl)-1H 4H 5H 6H-pyrrolo[3,4-c]pyrazole-5-carbonyl]benzonitrile]: 100 to 1000 nM; `CS(=O)(=O)c1ccc(-c2cccc(F)c2)c(C(=O)N2Cc3cnn(CC(F)(F)F)c3C2)c1` [Example 445, 5-[2-(3-Fluorophenyl)-5-methanesulfonylbenzoyl]-1-(2 2 2-trifluoroethyl)-1H 4H 5H 6H-pyrrolo[3,4-c]pyrazole]: 100 to 1000 nM. Regarding `C[C@H](Oc1ccc(S(C)(=O)=O)cc1C(=O)N1Cc2cnn(-c3cccc4nccn34)c2C1)C(F)(F)F` [Example 446, 1-{Imidazo[1 2-a]pyridin-5-yl}-5-(5-methanesulfonyl-2-{[(2S)-1 1 1-trifluoropropan-2-yl]oxy}benzoyl)-1H 4H 5H 6H-pyrrolo[3,4-c]pyrazole], the IC50 is under 100 nM. Next, `CC(C)Oc1ccc(C#N)cc1C(=O)N1Cc2cn(-c3ccncc3)nc2C1` [Example 447, 4-(Propan-2-yloxy)-3-[2-(pyridin-4-yl)-2H 4H 5H 6H-pyrrolo[3,4-c]pyrazole-5-carbonyl]benzonitrile]: under 100 nM.

In the case of `CS(=O)(=O)c1ccc(-c2cccc(F)c2)c(C(=O)N2Cc3cn(C4CCOCC4)nc3C2)c1` [Example 448, 5-[2-(3-Fluorophenyl)-5-methanesulfonylbenzoyl]-2-(oxan-4-yl)-2H 4H 5H 6H-pyrrolo[3,4-c]pyrazole], the IC50 is under 100 nM. Next, `CS(=O)(=O)c1ccc(-c2cccc(F)c2)c(C(=O)N2Cc3cn(CC4CC4)nc3C2)c1` [Example 449, 2-(Cyclopropylmethyl)-5-[2-(3-fluorophenyl)-5-methanesulfonylbenzoyl]-2H 4H 5H 6H-pyrrolo[3,4-c]pyrazole]: under 100 nM; `CC(C)Oc1ccc(C#N)cc1C(=O)N1Cc2cn(CC3CC3)nc2C1` [Example 450, 3-[2-(Cyclopropylmethyl)-2H 4H 5H 6H-pyrrolo[3,4-c]pyrazole-5-carbonyl]-4-(propan-2-yloxy)benzonitrile]: 100 to 1000 nM. Next, `C[C@H](Oc1ccc(C#N)cc1C(=O)N1Cc2cn(CC3CC3)nc2C1)C(F)(F)F` [Example 451, 3-[2-(Cyclopropylmethyl)-2H 4H 5H 6H-pyrrolo[3,4-c]pyrazole-5-carbonyl]-4-{[(2S)-1 1 1-trifluoropropan-2-yl]oxy}benzonitrile]: 100 to 1000 nM; `CS(=O)(=O)c1ccc(-c2cccc(F)c2)c(C(=O)N2Cc3cnn(CC4CC4)c3C2)c1` [Example 452, 1-(Cyclopropylmethyl)-5-[2-(3-fluorophenyl)-5-methanesulfonylbenzoyl]-1H 4H 5H 6H-pyrrolo[3,4-c]pyrazole]: 1000 to 10000 nM. Next, `CS(=O)(=O)c1ccc(-c2cccc(F)c2)c(C(=O)N2Cc3cn(CC4CC4(F)F)nc3C2)c1` (stereo not drawn) [Example 453, 2-[(2 2-Difluorocyclopropyl)methyl]-5-[2-(3-fluorophenyl)-5-methanesulfonylbenzoyl]-2H 4H 5H 6H-pyrrolo[3,4-c]pyrazole]: under 100 nM; `CS(=O)(=O)c1ccc(-c2cccc(F)c2)c(C(=O)N2Cc3cnn(CC4CC4(F)F)c3C2)c1` (stereo not drawn) [Example 454, 1-[(2 2-Difluorocyclopropyl)methyl]-5-[2-(3-fluorophenyl)-5-methanesulfonylbenzoyl]-1H 4H 5H 6H-pyrrolo[3,4-c]pyrazole]: 1000 to 10000 nM.
